Results as given in patent publication US7973056B2, “Triazole derivative or salt thereof” (Fujifilm Finechemicals Co., Ltd, priority 2008, dated 2011).
Converted amounts (≈) assume the structure as drawn.

How the values were obtained:
[1] = system: Microsporum canis ATCC 36299; assay: Antifungal activity test (in vitro), MIC; type: cell-based; conditions: ATCC36299
[2] = system: Aspergillus fumigatus ATCC 1028; assay: Antifungal activity test (in vitro), MIC; type: cell-based; conditions: ATCC1028
[3] = system: Candida albicans TIMM 1623; assay: Antifungal activity test (in vivo), mouse systemic infection model; conditions: for T/C (%): survival time of administration group / control group x100
Experimental: With respect to compounds I-1, I-3 and I-6 obtained in Examples 1, 3 and 6 respectively, therapeutic effects at the time of subcutaneous administration of compounds I-1, I-3 and I-6 on a mouse systemic infection model by Candida albicans TIMM 1623 were tested.
The test was carried out using 5 animals for each of the drug administration groups and Negative control group (sterile physiological saline administration group).
Each of compounds I-1, I-3 and I-6 was dissolved in and diluted with dimethyl sulfoxide (DMSO; Wako Pure Chemical Industries, Ltd.) and then prepared into a predetermined concentration by diluting with sterile physiological saline.
As the control experiment, Fluconazole (FLCZ, Flanos intravenous drip solution 100 mg; TOYAMA CHEMICAL CO, LTD.) diluted to a predetermined concentration with sterile physiological saline was used.
On the next day of the receipt of animals, body weights of mice were measured and CP (crude protein) was intraperitoneally administered at a dose of 200 mg/kg based on the individual body weight, and then they were reared for 3 days.
Cells of C. albicans TIMM 1623 cultured overnight at 35° C. on SDA (Sabouraud dextrose agar; Eiken Chemical Co., Ltd.) plate medium were suspended in sterile physiological saline and used as the Stock solution, and a portion thereof was diluted with 10% formalin (Wako Pure Chemical Industries, Ltd.). The number of cells in the diluted liquid was counted under a biological microscope using a hemocytometer, and then an inoculum was prepared by diluting the stock solution with sterile physiological saline (about 1.5×10^5 cells/ml). By inoculating 0.2 ml of this cell suspension through caudal vein, infection was induced. In this connection, the number of viable cells in the inoculum was verified by spreading the cell suspension optionally diluted with sterile physiological saline on an SDA plate medium and then culturing at 35° C. Each of the substances to be tested, control substance or sterile physiological saline was subcutaneously administered after 2 hours of the infection and for 3 days starting on the next day of infection once a day, a total of 4 times. After measuring individual body weight on the next day of infection, CP was again administered intraperitoneally at a dose of 100 mg/kg. The number of survived mice was observed and recorded for 14 days starting on the next day of infection.
The results were shown in Table 3 below and FIGS. 1A to 1D. In the table, the administration dose of the compounds of the present invention and the comparative compound represents a mg amount per 1 kg of a mouse weight (mg/kg).
Significant deference was tested, by 5% for both sides of the levels of significance, in accordance with the Kaplan-Meier method Logrank test (comparison of multiple groups), on the survival time distribution of each of the substances to be tested and control substance administration groups and sterile physiological saline administration group. SAS release 8.2 (SAS Institute Japan) was used in the Kaplan-Meier method Logrank test. (T/C(%)=[survival time of administration group (integrated value)/survival time of control group (integrated value)]×100)

## C[C@@H](N1CC=C(c2ccc(Cl)cn2)CC1)[C@](O)(Cn1cncn1)c1ccc(F)cc1F [I-6, (2R,3R)-3-(5-chloro-3′,6′-dihydro-2,4′-bipyridin-1′(2′H)-yl)-2-(2,4-difluorophenyl)-1-(1,2,4-triazol-1-yl)butan-2-ol]
[1]
  MIC: 0.3 µg/mL (≈ 0.673 µM)
[2]
  MIC: 1 µg/mL (≈ 2.24 µM)
[3]; 0.1 mg/kg s.c., day 0
  survival rate: 100
[3]; 0.1 mg/kg s.c., day 1
  survival rate: 100
[3]; 0.1 mg/kg s.c., day 2
  survival rate: 100
[3]; 0.1 mg/kg s.c., day 3
  survival rate: 100
[3]; 0.1 mg/kg s.c., day 4
  survival rate: 100
[3]; 0.1 mg/kg s.c., day 5
  survival rate: 100
[3]; 0.1 mg/kg s.c., day 6
  survival rate: 100
[3]; 0.1 mg/kg s.c., day 7
  survival rate: 80
[3]; 0.1 mg/kg s.c., day 8
  survival rate: 60
[3]; 0.1 mg/kg s.c., day 9
  survival rate: 60
[3]; 0.1 mg/kg s.c., day 10
  survival rate: 60
[3]; 0.1 mg/kg s.c., day 11
  survival rate: 60
[3]; 0.1 mg/kg s.c., day 12
  survival rate: 60
[3]; 0.1 mg/kg s.c., day 13
  survival rate: 60
[3]; 0.1 mg/kg s.c., day 14
  survival rate: 60
[3]; 0.1 mg/kg s.c.
  T/C (%): 194%
[3]; 1 mg/kg s.c., day 0
  survival rate: 100
[3]; 1 mg/kg s.c., day 1
  survival rate: 100
[3]; 1 mg/kg s.c., day 2
  survival rate: 100
[3]; 1 mg/kg s.c., day 3
  survival rate: 100
[3]; 1 mg/kg s.c., day 4
  survival rate: 100
[3]; 1 mg/kg s.c., day 5
  survival rate: 100
[3]; 1 mg/kg s.c., day 6
  survival rate: 100
[3]; 1 mg/kg s.c., day 7
  survival rate: 100
[3]; 1 mg/kg s.c., day 8
  survival rate: 100
[3]; 1 mg/kg s.c., day 9
  survival rate: 100
[3]; 1 mg/kg s.c., day 10
  survival rate: 100
[3]; 1 mg/kg s.c., day 11
  survival rate: 100
[3]; 1 mg/kg s.c., day 12
  survival rate: 100
[3]; 1 mg/kg s.c., day 13
  survival rate: 100
[3]; 1 mg/kg s.c., day 14
  survival rate: 100
[3]; 1 mg/kg s.c.
  T/C (%): 242%
[3]; 10 mg/kg s.c., day 0
  survival rate: 100
[3]; 10 mg/kg s.c., day 1
  survival rate: 100
[3]; 10 mg/kg s.c., day 2
  survival rate: 100
[3]; 10 mg/kg s.c., day 3
  survival rate: 100
[3]; 10 mg/kg s.c., day 4
  survival rate: 100
[3]; 10 mg/kg s.c., day 5
  survival rate: 100
[3]; 10 mg/kg s.c., day 6
  survival rate: 100
[3]; 10 mg/kg s.c., day 7
  survival rate: 100
[3]; 10 mg/kg s.c., day 8
  survival rate: 100
[3]; 10 mg/kg s.c., day 9
  survival rate: 100
[3]; 10 mg/kg s.c., day 10
  survival rate: 100
[3]; 10 mg/kg s.c., day 11
  survival rate: 100
[3]; 10 mg/kg s.c., day 12
  survival rate: 100
[3]; 10 mg/kg s.c., day 13
  survival rate: 100
[3]; 10 mg/kg s.c., day 14
  survival rate: 100
[3]; 10 mg/kg s.c.
  T/C (%): 242%
